From patent US9526766B2, “Potentiation of antibiotic treatment with a protein-lipid complex” (priority 2012, dated 2016)
In brackets after ≈: the same amount, converted by molar mass. Read-outs that look alike come from different tables or passages of the source.

Tests used:
[1] = test system: Staphylococcus aureus; test: MIC by broth microdilution, antibiotics with and without ALAFAC; format: cell-based; conditions: for MIC: Staphylococcus aureus
Method: (§1) Methodology: Minimal inhibitory concentrations (MICs) were determined in 96-well microtiter plates using the microdilution method according to approved standards of the CLSI except that Todd-Hewitt medium supplemented with 0.5% yeast extract, which yields reproducible MIC results was used as the test medium for S. pneumoniae. For the remaining species Mueller-Hinton medium was used as indicated by the CLSI standard. Each well contained two-fold dilutions of antibiotic, was seeded with a final bacterial concentration of 10^5 CFU/mL, and was incubated for 18 h at 37° C. in a Synergy II microplate reader (Biotek, Winooski, Vt.) where the OD600 was recorded every 5 minutes to monitor bacterial growth. The MIC was defined as the lowest concentration of antimicrobial agent solution at which no increase in OD600 was detected.
In vitro susceptibility tests. Minimal inhibitory concentrations (MICs) were determined in 96-well microtiter plates using the microdilution method according to approved standards of the CLSI as described previously. However, rather than Mueller-Hinton broth, Tryptic soy broth (TSB) was used for susceptibility testing as it is the common media used for Staphylococcal growth, and as it has shown more consistent results for a variety of antimicrobials when tested against Staphylococci. […] A two-fold dilution series of antibiotics in triplicate and in the presence or absence of ALAFAC was prepared in 96 well microtiter plates, and each well was seeded with a final bacterial concentration of 10^5 CFU/mL, and was incubated for 24 h at 37° C. in a Synergy 2 microplate reader (Biotek, Winooski, Vt.) where the Optical Density at 600 nm (OD600) was recorded every 5 minutes to monitor bacterial growth. The MIC was defined as the lowest concentration of antimicrobial agent solution where no increase in OD600 was detected.

[2] = test system: NRS 123 Staphylococci; test: Membrane potential, DiBAC4(3) fluorescence; format: cell-based, Staphylococcus aureus; conditions: Ruthenium Red, Amiloride
Method: Assessing membrane potential. Staphylococci grown to late log phase in TSB were pelleted by centrifugation at 2,400×g for 10 minutes and washed twice by resuspension in PBS. The bacterial pellet was resuspended in PBS to half of the original volume and energized with 50 mM glucose for 15 minutes at 37° C. To measure membrane potential of the staphylococcal membrane, 500 nM DiBAC4(3) (bis-(1,3-dibutylbarbituric acid) trimethine oxonol; Molecular Probes, Eugene, Oreg., USA) were added. […] The plate was then placed immediately into a pre-warmed (37° C.) Synergy 2 Multi-Mode Microplate Reader (BioTek) where fluorescence readings from DiBAC4(3) (485/20 nm excitation, 528/20 nm emission) were taken every minute for one hour. The difference in fluorescence intensity between the untreated control and the ALAFAC-treated sample was calculated for the “no inhibitor” samples and for the “inhibitor” samples using the values after 60 minutes. The fluorescence intensity difference for the “inhibitor” samples was then expressed as fold change of the intensity compared with the ALAFAC alone (“no inhibitor”) sample, providing the degree of depolarization compared to the “ALAFAC alone” sample.

[3] = test system: NRS 384 Staphylococci; test: Intracellular pH measurement (BCECF-AM); format: cell-based, Staphylococcus aureus; conditions: ALAFAC 100 μg/mL (6 μM), RuR 30 μM, Amiloride 1 mM
Text: Intracellular pH measurement. A reported protocol for intracellular pH (pHi) measurement was modified and optimized for S. aureus by testing the effect of various dye concentrations and staining times on the measured fluorescence of S. aureus isolate NRS 384 grown to mid-log phase. Cell samples were subjected to increasing concentrations of the membrane-permeant acetoxymehtyl (AM) ester derivative of the dual-excitation ratiometric pH indicator dye BCECF (2′,7′-bis-(2-carboxyethyl)-5-(and-6)-carboxyfluorescein), for 30 minutes at 30° C. Fluorescence was measured as a ratio of fluorescence at 530 nm with dual wavelength excitation at 490 and 440 nm and calibration curves were established for each independent experiment. After testing a number of loading concentrations we observed that the fluorescence ratios remains generally constant when concentrations above 20 μM was used. Therefore 25 μM BCECF-AM was used for all experiments. The optimized staining time, 30 minutes, was determined using the same criteria and was used for all experiments. After loading, the cells were washed twice in PBS by centrifugation and the resulting pellet was resuspended in PBS to the original volume and ALAFAC and ALAFAC/antibiotic combinations were added. CCCP was added as a positive control. CCCP is a lipophilic weak acid that is soluble in the lipid domain of the membrane in both the protonated and deprotonated form. This allows it to act as a protonophore causing an influx of H^+ into the cytoplasm, dissipating both the electrical potential and the H^+ gradient across the inner membrane. For each experiment calibration was performed where cells were resuspended in high [K^+] buffers at different pH values ranging from 6.5 to 8.0.

[4] = test system: Streptococcus pneumoniae; test: MIC by broth microdilution, antibiotics with and without ALAFAC; format: cell-based; conditions: Streptococcus pneumoniae, agent alone, read-out: MIC
Method: as §1
In vitro susceptibility tests. Minimal inhibitory concentrations (MICs) were determined in 96-well microtiter plates using the microdilution method according to approved standards of the CLSI except that Todd-Hewitt medium supplemented with 0.5% yeast extract, which yields reproducible MIC results was used as the test medium for S. pneumoniae. MICs for A. baumanni, and M. catarrhalis were determined in MH media. Two-fold dilutions of a starting antibiotic concentration was added in triplicate into microtiter plate wells (in 96-well plates), were seeded with a final bacterial concentration of ˜10^5 colony forming units (CFU)/mL, and was incubated for 18 h in ambient air at 37° C. in a Synergy II microplate reader (Biotek, Winooski, Vt.) where the OD600 was recorded every 5 minutes to monitor bacterial growth. The MIC was defined as the lowest concentration of antimicrobial agent solution at which no increase in OD600 was detected.

[5] = test system: Staphylococcus aureus; test: Minimal bactericidal concentration (MBC) from MIC plates; format: cell-based; conditions: Staphylococcus aureus
Text: The MBC was defined as the lowest concentration of antimicrobials yielding colony counts <0.1% (3 log10 reduction) of the initial inoculum (as determined by colony counts from the growth control well immediately after inoculation) as described.

[6] = test system: Streptococcus pneumoniae; test: Short-time kill assay on planktonic cultures; format: cell-based; conditions: for Minimum antibiotic concentration for bactericidal (>3 log10) activity, planktonic: within 4-6 hours, antibiotic alone; for Bactericidal activity (FIG. 1): 1 hour at 37° C., fatty acids: concentration required to kill versus that associated with the ALAFAC-complex
Method: Methodology: In late logarithmic growth phase, the bacteria were harvested by centrifugation at 12,000×g for 10 minutes and resuspended in phosphate-buffered saline (PBS; […], […], […], pH 7.4). Appropriate dilutions of the bacteria were suspended in PBS and treated with indicated concentrations of ALAFAC and/or antibiotics for various times. The effect on bacterial viability was assessed by plating serial dilutions of bacterial sample on tryptic soy agar plates containing 5% sheep blood (viable counts) and determining viable colony forming units after overnight growth at 37° C.
Short-time kill assays. In late logarithmic growth phase, the bacteria were harvested by centrifugation at 12,000×g for 10 minutes and resuspended in phosphate-buffered saline (PBS; 30 mM Na2HPO4, 10 mM KH2PO4, […], pH 7.4). Appropriate concentrations of the bacteria (around 10^8 colony forming units per ml) were suspended in PBS and treated with indicated concentrations of ALAFAC and/or antibiotics for various times. The effect on bacterial viability was assessed by plating serial dilutions of bacterial sample on tryptic soy agar plates containing 5% sheep blood (viable counts) and determining viable CFUs after overnight growth at 37° C.

[7] = test system: Streptococcus pneumoniae biofilms; test: Static biofilm model, viable counts; format: cell-based; conditions: for Minimum antibiotic concentration for bactericidal (>3 log10) activity on biofilms: within 4-6 hours, antibiotic alone
Method: Methodology: Pneumococci were grown statically in CDM and S. aureus were grown in trypic soy medium to mid-logarithmic phase (OD600=0.5), washed, and resuspended in fresh pre-warmed medium to a density of 2×10^4 CFU in 500 μl volume, and suspensions were used to seed sterile round glass coverslips in the bottom of polystyrene 24-well plates with or without a substratum of confluent H292 epithelial cells. Biofilms were cultured at 34° C. in 5% CO2 for indicated times with change of culture media every 12 hours and to assess biomass and antibiotic resistance by viable counts (as described).
Biofilms were then washed in PBS and detached by scraping the surface in the presence of 100 μL PBS followed by a rinse with 100 μL PBS. Collected cells were sonicated in a sonication water bath for 2 s followed by vortexing twice for 20 seconds at high speed and the dispersed biofilm cells were used to determine viable CFUs per ml from diluted samples plated and grown on blood agar.
Static Biofilm Model. Pneumococci were grown in CDM to mid-logarithmic phase (OD600=0.5), washed, and resuspended in fresh pre-warmed medium to a density of 2×10^4 CFUs in 500 μl volume, and suspensions were used to seed sterile round glass coverslips in the bottom of polystyrene 24-well plates with a substratum of confluent H292 epithelial cells as described. Biofilms were cultured at 34° C. in 5% CO2 for indicated times with change of culture media every 12 hours and used for SEM studies or to assess biomass and antibiotic resistance by viable plate counts.
Biofilms were then washed in PBS, dispersed by sonication, and collected by pipetting in 100 μL PBS followed by a rinse with 100 μL PBS. Collected cells were then vortexed twice for 20 seconds at high speed and the dispersed biofilm cells were used to determine viable CFUs per ml from diluted samples plated and grown on blood agar. Results are reported as the total number of CFUs per biofilm.

[8] = test system: Staphylococcus aureus biofilms; test: Static biofilm model, viable counts; format: cell-based; conditions: NRS 1 (VISA) and NRS 384 (VSSA) biofilms; 24 hours; vancomycin 32 μg/mL (21 μM) alone or with ALAFAC
Method: Static Biofilm Model. Staphylococci were grown in TSB to mid-logarithmic phase (OD600=0.5), washed, and resuspended in fresh pre-warmed medium to a density of 2×10^4 CFU in 500 μl volume, and suspensions were used to seed polystyrene 24-well plates. Bacteria were cultured at 37° C. for 12 hours, after which biofilms were washed with PBS to eliminate planktonic bacteria and were exposed to TSB with indicated concentrations of ALAFAC and/or antibiotics for 24 hours at 37° C. Biofilms were then washed in PBS, sonicated and detached by scraping the surface in the presence of 100 μL PBS followed by a rinse with 100 μL PBS. Collected cells were vortexed twice for 20 seconds at high speed and the dispersed biofilm cells were first observed by microscopy to ensure proper dispersion and then diluted in a 10-fold dilution series where 100 μl of each dilution was plated on blood agar plates to determine viable CFUs per ml after overnight growth at 37° C. Colony counts from plates carrying 20-200 colonies were used to determine the viable counts and are reported as the total number of colony-forming units per biofilm.

SMILES: N=C(N)NC(=O)c1nc(Cl)c(N)nc1N [Amiloride]
- Effect of inhibitor on ALAFAC antibiotic potentiation in MIC assay ([1]; NRS 123, methicillin + ALAFAC, Ruthenium Red 30 μM, Amiloride 1 mM): completely abolished
- Effect of inhibitor on ALAFAC-associated membrane depolarization [2]: completely abolished
- Transmembrane proton gradient (intracellular pH) [3]: did not fully inhibit

SMILES: CC[C@H]1OC(=O)[C@H](C)[C@@H](O[C@H]2C[C@@](C)(OC)[C@@H](O)[C@H](C)O2)[C@H](C)[C@@H](O[C@@H]2O[C@H](C)C[C@H](N(C)C)[C@H]2O)[C@](C)(O)C[C@@H](C)C(=O)[C@H](C)[C@@H](O)[C@]1(C)O [Erythromycin, erythromycin]
- MIC ([4]; S. pneumoniae D39): 0.03 µg/mL
- MIC ([4]; S. pneumoniae JY53 (erythromycin-resistant)): 3 µg/mL
- MIC ([1]; S. aureus NRS123, antibiotic alone, read-out: MIC): 0.5 µg/mL
- MIC ([1]; S. aureus NRS384, antibiotic alone, read-out: MIC): 16 µg/mL
- MBC ([5]; NRS123, S. aureus NRS123, antibiotic alone, read-out: MBC): 16 µg/mL (≈ 21.8 µM)
- MBC ([5]; NRS384, S. aureus NRS384, antibiotic alone, read-out: MBC): > 256 µg/mL
- Short-time killing ([6]; D39, 4 hours, ALAFAC 50 μg/ml, erythromycin 200 μg/ml, alone or combined, 7.2 log10 inoculum): insignificant bactericidal activity
- Bactericidal activity alone ([6]; D39 and EF3030, 1 hour, penicillin G up to 5,000 μg/ml, erythromycin up to 1,000 μg/ml): lacked any bactericidal activity
- Minimum antibiotic concentration for bactericidal (>3 log10) activity, planktonic ([6]; S. pneumoniae D39): >1,000 μg/ml
- Minimum antibiotic concentration for bactericidal (>3 log10) activity, planktonic ([6]; S. pneumoniae JY53): >1000 μg/ml
- Biofilm killing ([7]; D39 48 h biofilm (8.7 log10), erythromycin 500 μg/ml alone or with 250 μg/ml ALAFAC): no bactericidal effects
- Minimum antibiotic concentration for bactericidal (>3 log10) activity on biofilms ([7]; S. pneumoniae D39 biofilm): >1000 μg/ml
- Minimum antibiotic concentration for bactericidal (>3 log10) activity on biofilms ([7]; S. pneumoniae JY53 biofilm): >1000 μg/ml

SMILES: CN[C@H](CC(C)C)C(=O)N[C@H]1C(=O)N[C@@H](CC(N)=O)C(=O)N[C@H]2C(=O)N[C@H]3C(=O)N[C@H](C(=O)N[C@H](C(=O)O)c4cc(O)cc(O)c4-c4cc3ccc4O)[C@H](O)c3ccc(c(Cl)c3)Oc3cc2cc(c3O[C@@H]2O[C@H](CO)[C@@H](O)[C@H](O)[C@H]2O[C@H]2C[C@](C)(N)[C@H](O)[C@H](C)O2)Oc2ccc(cc2Cl)[C@H]1O [Vancomycin, vancomycin]
- MIC ([1]; NRS1): 8 µg/mL
- MIC ([1]; NRS384): 1 µg/mL
- MBC ([5]; NRS1): 32 µg/mL (≈ 22.1 µM)
- MBC ([5]; NRS384): 16 µg/mL (≈ 11 µM)
- Biofilm killing [8]: almost complete insensitivity

SMILES: CCCCC/C=C\C/C=C\CCCCCCCC(=O)O [linoleic acid]
- Bactericidal activity (FIG. 1) ([6]; S. pneumoniae D39): considerably higher

SMILES: CCCCCCCC/C=C\CCCCCCCC(=O)O [oleic acid]
- Bactericidal activity (FIG. 1) ([6]; S. pneumoniae D39): considerably higher
